Measured values as given in the supplement of paper PMC10307832.

Experiments:
Assay in all cases: relative viability (nuclei count vs DMSO), 5 days (fraction); higher = more cells survive
[1] = compound: CC1=CC=C(C=C1)C(=O)CN2C3=C(CCCC3)SC2=N [Pifithrin_alpha] + CC(C)C[C@H](NC(=O)[C@H](Cc1ccccc1)NC(=O)c1cnccn1)B(O)O [Bortezomib] (partner 0.002 µM)
Method in brief: (§1)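 Relative viability is defined as nuclei in treated wells over nuclei in vehicle wells. Duplicate plates were run and medians reported. Lung cancer cell lines in 1536-well plates were dosed by pin tool one day after seeding, with one drug or with a fixed anchor-drug dose plus five library-drug doses (not always all listed) in √10 steps, and nuclei were counted after 5 days.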

[2] = compound: CC1=CC=C(C=C1)C(=O)CN2C3=C(CCCC3)SC2=N [Pifithrin_alpha] + C[C@@H](Oc1cc(-c2cnn(C3CCNCC3)c2)cnc1N)c1c(Cl)ccc(F)c1Cl [Crizotinib] (partner 1 µM)
Method in brief: as §1

[3] = compound: CNC(=O)c1ccccc1Sc1ccc2c(/C=C/c3ccccn3)n[nH]c2c1 [Axitinib] + Nc1ncn([C@H]2C[C@H](O)[C@@H](CO)O2)c(=O)n1 [Decitabine] (partner 2 µM)
Method in brief: as §1

[4] = compound: Nc1nc(Nc2ccc3c(c2)CC[C@@H](N2CCCC2)CC3)nn1-c1cc2c(nn1)-c1ccccc1CCC2 [Bemcentinib] + CCNC(=O)c1noc(-c2cc(C(C)C)c(O)cc2O)c1-c1ccc(CN2CCOCC2)cc1 [Luminespib] (partner 0.01 µM)
Method in brief: as §1

Cell Line	relative viability ([1]; first compound 1 µM)	relative viability ([1]; first compound 3.162 µM)	relative viability ([1]; first compound 10 µM)	relative viability ([1]; first compound 31.62 µM)	relative viability ([1]; first compound 100 µM)	relative viability ([2]; first compound 1 µM)	relative viability ([2]; first compound 3.162 µM)	relative viability ([2]; first compound 10 µM)	relative viability ([2]; first compound 31.62 µM)	relative viability ([2]; first compound 100 µM)	relative viability ([3]; first compound 0.005 µM)	relative viability ([3]; first compound 0.01581 µM)	relative viability ([3]; first compound 0.05 µM)	relative viability ([3]; first compound 0.1581 µM)	relative viability ([3]; first compound 0.5 µM)	relative viability ([4]; first compound 0.04 µM)	relative viability ([4]; first compound 0.1265 µM)	relative viability ([4]; first compound 0.4 µM)	relative viability ([4]; first compound 1.265 µM)	relative viability ([4]; first compound 4 µM)
ChaGo-K-1	0.962	1.21	0.944	0.711	0.986	1.2	1.27	1.08	0.708	1.03	0.557	0.527	0.506	0.52	0.495	0.573	0.542	0.701	0.843	0.587
NCI-H460	1.51	1.14	0.661	–	0.438	1.4	0.827	0.912	–	0.962	0.585	0.464	0.528	0.535	0.585	0.0301	0.0417	0.0326	0.0332	0.0269
NCI-H727	0.786	0.958	0.696	0.446	0.793	0.789	0.78	0.823	0.556	0.673	0.962	0.842	0.835	1.01	0.837	0.352	0.383	0.268	0.29	0.303
NCI-H838	0.786	0.628	0.599	0.626	0.62	0.829	0.746	0.667	0.496	0.625	0.503	0.492	0.433	0.487	0.475	0.256	0.278	0.357	0.282	0.262
NCI-H1755	0.894	0.907	0.866	0.862	0.971	0.858	0.78	0.771	0.634	0.864	0.759	0.715	0.704	0.726	0.709	0.742	0.52	0.617	0.34	0.418
EMC-BAC-2	1.07	1.09	0.99	0.8	1.15	0.733	0.745	0.627	0.416	0.645	1.03	0.966	0.971	0.965	0.945	1.24	1.29	1.16	1.19	1.2
EKVX	1.07	0.94	0.768	0.607	0.648	1.02	0.716	0.725	0.46	0.738	0.366	0.315	0.344	0.334	0.396	0.825	0.878	0.923	0.838	0.863
NCI-H647	0.992	0.966	0.706	–	0.736	0.838	1.03	0.927	–	0.605	0.262	0.378	0.457	0.348	0.495	0.142	0.157	0.108	0.143	0.136
LU99A	1.09	1.24	1.19	–	1.24	0.565	0.633	0.496	–	0.699	0.719	0.987	0.761	0.905	0.857	0.19	0.289	0.234	0.346	0.24
NCI-H1734	1.1	0.928	0.899	0.7	0.817	0.826	0.647	0.686	0.592	0.604	0.518	0.492	0.524	0.491	0.521	0.178	0.192	0.219	0.218	0.188
HARA	1.25	1.13	1.2	0.878	1.26	1.26	1.11	1.19	0.791	1.24	0.575	0.396	0.484	0.548	0.581	0.603	0.983	0.719	1.03	0.597
HCC-827	0.961	1.14	0.987	0.903	0.981	0.87	0.928	0.875	0.693	0.82	0.321	0.216	0.358	0.32	0.333	0.689	0.6	0.624	0.742	0.589
EPLC-272H	–	0.944	0.895	0.627	1.11	–	0.921	0.805	0.601	1.05	0.411	0.345	0.338	0.351	0.377	0.25	0.658	0.279	0.353	0.318
SW 1573	1.01	0.98	1.13	0.899	1.14	0.789	0.753	0.857	0.664	0.656	0.546	0.544	0.579	0.445	0.617	0.203	0.185	0.212	0.152	0.215
LXF-289	1.01	1.01	1.02	0.813	0.962	0.878	0.813	0.805	0.696	0.788	0.388	0.398	0.353	0.362	0.395	0.74	0.78	0.703	0.653	0.665
SK-LU-1	0.891	1.4	1.41	0.574	1.39	1.01	1.03	0.951	0.824	1.02	0.64	0.726	0.618	0.582	0.598	0.204	0.202	0.196	0.192	0.198
NCI-H23	0.917	0.978	1.06	0.61	0.875	0.591	0.596	0.432	0.426	0.506	0.327	0.311	0.346	0.299	0.325	0.197	0.233	0.192	0.224	0.214
A-427	0.953	0.957	0.916	0.722	0.928	1	0.85	0.857	0.574	0.932	0.58	0.602	0.553	0.57	0.589	1.04	1.09	0.934	0.822	0.737
NCI-H2009	0.551	0.907	0.942	0.444	0.798	0.963	1.03	0.955	0.679	0.857	0.408	0.339	0.409	0.364	0.346	1.07	1.04	1.13	0.997	1.03
UMC-11	0.818	0.803	0.759	0.574	1.05	0.64	0.758	0.63	0.515	0.757	0.597	0.577	0.577	0.615	0.553	0.964	1.06	1.1	0.967	1.04
NCI-H596	0.969	1.1	1.23	1.03	1.06	0.953	0.92	0.952	0.883	1.02	1.15	0.976	1.32	0.935	1.07	0.893	1.12	1.23	1.27	1.09
LOU-NH91	0.409	0.475	0.445	0.414	0.503	0.704	0.722	0.748	0.689	0.654	0.852	0.645	0.813	0.749	0.851	0.293	0.414	0.354	0.303	0.324
HOP-62	0.92	0.983	0.955	0.514	1.14	0.97	1.14	0.848	0.645	1.04	0.212	0.247	0.202	0.19	0.276	0.863	0.875	0.844	1.02	1
NCI-H1993	–	0.815	0.861	0.887	0.892	–	0.771	0.815	0.797	0.794	0.709	0.634	0.609	0.631	0.668	0.905	0.768	0.999	1.13	0.899
